Assay results taken from patent publication US10913753B2, “Thienopyridine carboxamides as ubiquitin-specific protease inhibitors” (FORMA Therapeutics, Inc., priority 2016, dated 2021).

What was measured:
USP25 = USP25 (Homo sapiens (Human), UniProt Q9UHP3); assay: Ubiquitin-Rhodamine 110 Assay for USP25 Activity; type: biochemical
Procedure: The assay was performed in a final volume of 9 μL in assay buffer containing 20 mM Tris-HCl (pH 8.0, (1M Tris-HC1, pH 8.0 solution; Corning 46-031-CM)), 3 mM BME (2-Mercaptoethanol; Sigma 63689-25ML-F), 0.03% BGG (0.22 μM filtered, Sigma, G7516-25G), and 0.01% Triton X-100 (Sigma, T9284-10L). Nanoliter quantities of 10-point, 3-fold serial dilution in DMSO was pre-dispensed into 1536 assay plates (Corning, #3724BC) for a final test concentration of 25 μM to 1.3 nM, top to lowest dose, respectively. Enzyme USP25, construct USP25-His6, (Boston Biochem E-546). Concentration and incubation times were optimized for the maximal signal-to-background while maintaining initial velocity conditions at a fixed substrate concentration. The final concentration of the enzyme in the assay was 75 pM. […] 3 μL of 2× enzyme was added to assay plates (pre-stamped with compound) preincubated with […] for 30 minutes and then 3 μL of 2× Ub-Rh110 was added to assay plates. Plates were incubated for 45 minutes at room temperature before addition of 3 μL of stop solution (final concentration of 10 mM citric acid (Sigma, 251275-500G)). Fluorescence was read on the Envision (Excitation at 485 nm and Emission at 535 nm; Perkin Elmer) or on the PheraSTAR (Excitation at 485 nm and Emission at 535 nm; BMG Labtech).
(§1) For both the USP28 and USP25 assay formats, data were reported as percent inhibition compared with control wells based on the following equation: % inh=1-((FLU-AveLow)/(AveHigh−AveLow)) where FLU=measured Fluorescence, AveLow=average Fluorescence of no enzyme control (n=16), and AveHigh=average Fluorescence of DMSO control (n=16). IC50 values were determined by curve fitting of the standard 4 parameter logistic fitting algorithm included in the Activity Base software package: IDBS XE Designer Model205. Data is fitted using the Levenburg Marquardt algorithm.

USP28 = USP28 (Homo sapiens (Human), UniProt Q96RU2); assay: Ubiquitin-Rhodamine 110 Assay for USP28 Activity; type: biochemical
Sequence of USP28 (Q96RU2 whole entry): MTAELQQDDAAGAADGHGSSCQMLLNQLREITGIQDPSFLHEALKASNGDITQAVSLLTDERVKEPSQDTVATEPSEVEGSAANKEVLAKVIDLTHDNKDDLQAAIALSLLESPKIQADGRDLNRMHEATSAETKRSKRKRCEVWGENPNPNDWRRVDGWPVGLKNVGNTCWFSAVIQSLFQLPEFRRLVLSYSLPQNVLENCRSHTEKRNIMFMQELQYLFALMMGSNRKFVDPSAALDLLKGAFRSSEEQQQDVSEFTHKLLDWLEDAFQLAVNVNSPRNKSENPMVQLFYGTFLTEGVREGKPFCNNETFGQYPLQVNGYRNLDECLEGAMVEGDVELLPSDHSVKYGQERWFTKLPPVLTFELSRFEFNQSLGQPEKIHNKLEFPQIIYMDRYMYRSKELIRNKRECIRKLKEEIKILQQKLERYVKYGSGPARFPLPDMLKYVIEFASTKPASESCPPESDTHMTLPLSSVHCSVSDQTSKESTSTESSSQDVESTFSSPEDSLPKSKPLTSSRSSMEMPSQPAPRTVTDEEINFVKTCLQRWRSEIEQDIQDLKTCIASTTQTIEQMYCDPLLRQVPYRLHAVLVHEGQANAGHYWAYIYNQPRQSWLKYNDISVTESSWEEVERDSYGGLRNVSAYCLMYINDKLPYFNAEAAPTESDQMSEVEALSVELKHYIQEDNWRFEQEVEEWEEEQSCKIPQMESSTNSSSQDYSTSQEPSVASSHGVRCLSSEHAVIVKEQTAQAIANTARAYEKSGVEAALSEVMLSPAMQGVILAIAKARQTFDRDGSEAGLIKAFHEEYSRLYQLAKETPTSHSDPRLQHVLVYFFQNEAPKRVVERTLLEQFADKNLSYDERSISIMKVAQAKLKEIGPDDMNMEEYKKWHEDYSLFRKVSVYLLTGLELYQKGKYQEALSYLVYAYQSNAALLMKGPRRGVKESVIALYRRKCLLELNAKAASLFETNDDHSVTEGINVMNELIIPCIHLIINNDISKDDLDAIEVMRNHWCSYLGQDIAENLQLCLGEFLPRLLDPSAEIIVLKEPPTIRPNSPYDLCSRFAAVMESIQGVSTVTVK
Procedure: The assay was performed in a final volume of 20 μL in assay buffer containing 20 mM Tris-HCl (pH 8.0, (1M Tris-HCl, pH 8.0 solution; Corning 46-031-CM)), 2 mM CaCl2 (1M Calcium Chloride solution; Sigma #21114) 2 mM BME (2-Mercaptoethanol; Sigma 63689-25ML -F), 0.01% Prionex (0.22 μM filtered, Sigma #G-0411), and 0.01% Triton X-100. Stock compound solutions were stored at −20° C. as 10 mM in DMSO. Up to 1 month prior to the assay, 2 mM test compounds were pre-dispensed into assay plates (Black, low volume; Corning #3820) and frozen at −20° C. Prestamped assay plates were allowed to come to room temperature on the day of the assay. For the screen, 100 nL of 2 mM was pre-dispensed for a final screening concentration of 10 μM (DMSO(fc)=0.5%). […] Plates were incubated stacked for 90 minutes at room temperature before fluorescence was read on the Envision (Excitation at 485 nm and Emission at 535 nm; Perkin Elmer) or on the PheraSTAR (Excitation at 485 nm and Emission at 535 nm; BMG Labtech).
For follow-up studies, the assay was performed in a final volume of 15 μL in assay buffer containing 20 mM Tris-HCl (pH 8.0, (1M Tris-HCl, pH 8.0 solution; Corning 46-031-CM)), 3 mM BME (2-Mercaptoethanol; Sigma 63689-25ML-F), 0.03% BGG (0.22 μM filtered, Sigma, G7516-25G), and 0.01% Triton X-100 (Sigma, T9284-10L). Nanoliter quantities of either an 8-point or 10-point, 3-fold serial dilution in DMSO was pre-dispensed into assay plates (Perkin Elmer, ProxiPlate-384 F Plus) for a final test concentration of either 25 μM to 11 nM or 25 μM to 1.3 nM, respectively. Enzyme USP28, construct USP28 (USP28-5(1-1077)-TEV-6*His; LifeSensors) concentration and incubation times were optimized for the maximal signal-to -background while maintaining initial velocity conditions at a fixed substrate concentration. The final concentration of the enzyme in the assay was 75 pM. […] 5 μL of 2× enzyme was added to assay plates (pre-stamped with compound) preincubated with USP28 for 30 minutes and then 5 μL of 2× Ub-Rh110 was added to assay plates. Plates were incubated stacked for 20 min at room temperature before 5 μL of stop solution was added (final concentration of 10 mM citric acid (Sigma, 251275-500G)). Fluorescence was read on the Envision (Excitation at 485 nm and Emission at 535 nm; Perkin Elmer) or on the PheraSTAR (Excitation at 485 nm and Emission at 535 nm; BMG Labtech).
as §1

Sequence of USP25 (Q9UHP3 whole entry): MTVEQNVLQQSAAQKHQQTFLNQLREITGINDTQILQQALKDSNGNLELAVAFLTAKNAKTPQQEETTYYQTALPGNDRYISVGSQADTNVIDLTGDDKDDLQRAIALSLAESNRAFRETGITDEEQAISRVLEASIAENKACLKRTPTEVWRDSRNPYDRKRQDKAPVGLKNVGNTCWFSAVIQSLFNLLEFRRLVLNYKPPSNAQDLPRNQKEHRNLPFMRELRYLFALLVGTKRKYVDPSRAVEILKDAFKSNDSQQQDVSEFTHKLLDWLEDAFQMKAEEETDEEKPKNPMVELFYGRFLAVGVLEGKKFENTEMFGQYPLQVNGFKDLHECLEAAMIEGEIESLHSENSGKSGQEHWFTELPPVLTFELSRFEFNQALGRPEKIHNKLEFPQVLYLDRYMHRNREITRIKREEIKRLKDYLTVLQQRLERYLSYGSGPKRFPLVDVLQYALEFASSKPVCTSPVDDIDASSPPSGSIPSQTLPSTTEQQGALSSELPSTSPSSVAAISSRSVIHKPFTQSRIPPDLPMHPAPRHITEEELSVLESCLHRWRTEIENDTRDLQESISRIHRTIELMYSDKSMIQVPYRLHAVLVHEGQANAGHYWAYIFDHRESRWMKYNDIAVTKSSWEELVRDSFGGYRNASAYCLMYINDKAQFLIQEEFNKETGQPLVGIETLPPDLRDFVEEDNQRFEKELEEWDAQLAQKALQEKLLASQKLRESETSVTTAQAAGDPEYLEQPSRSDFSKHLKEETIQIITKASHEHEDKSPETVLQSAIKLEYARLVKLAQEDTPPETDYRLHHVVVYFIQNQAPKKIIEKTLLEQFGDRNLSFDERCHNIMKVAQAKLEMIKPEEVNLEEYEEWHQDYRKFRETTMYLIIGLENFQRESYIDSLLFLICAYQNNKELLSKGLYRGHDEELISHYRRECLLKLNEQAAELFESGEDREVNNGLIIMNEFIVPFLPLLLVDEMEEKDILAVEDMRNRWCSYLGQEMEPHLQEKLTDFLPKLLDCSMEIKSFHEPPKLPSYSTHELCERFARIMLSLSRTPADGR

| Structure (SMILES) | IC50 (USP25) | IC50 (USP28) |
| --- | --- | --- |
| Cc1cc2c(N)c(C(=O)NCCc3ccc(N4CCNCC4)c(Cl)c3)sc2nc1C [Compound I-31] | 2000 to 10000 nM | 2000 to 10000 nM |
| Nc1c(C(=O)NCCc2ccc(N3CCNCC3)cc2)sc2nc(C(F)(F)F)ccc12 [Compound I-33] | 2000 to 10000 nM | 2000 to 10000 nM |
| Cc1ccc2c(N)c(C(=O)NCCc3cc(F)c(N4CC5CCC(C4)N5)cc3F)sc2n1 [Compound I-34] | 200 to 2000 nM | < 200 nM |
| Cc1ccc2c(N)c(C(=O)NCCc3ccc(N4CC5CCC(C4)N5)cc3C#N)sc2n1 [Compound I-36] | 200 to 2000 nM | < 200 nM |
| COCc1cc(N2CCNCC2)ccc1CCNC(=O)c1sc2nc(C)ccc2c1N [Compound I-37] | 200 to 2000 nM | < 200 nM |
| Cc1ccc2c(N)c(C(=O)NCCc3ccc(-n4ncc5c4CNC5)cc3)sc2n1 [Compound I-38] | 2000 to 10000 nM | 200 to 2000 nM |
| Nc1c(C(=O)NCCc2ccc(N3CCNCC3)c(Cl)c2)sc2ncc(Cl)cc12 [Compound I-40] | 2000 to 10000 nM | 200 to 2000 nM |
| Cc1ccc2c(N)c(C(=O)NCCc3ccc(-n4ncc5c4CNC5)cc3F)sc2n1 [Compound I-41] | 200 to 2000 nM | < 200 nM |
| Nc1c(C(=O)NCCc2ccc(N3CCNCC3)cc2)sc2nc(CO)ccc12 [Compound I-43] | 2000 to 10000 nM | 200 to 2000 nM |
| CCc1cc(CCNC(=O)c2sc3nc(C)ccc3c2N)ccc1N1CC2CCC(C1)N2 [Compound I-44] | < 200 nM | < 200 nM |
| CCc1ccc2c(N)c(C(=O)NCCc3ccc(N4CCNCC4)cc3)sc2n1 [Compound I-47] | < 200 nM | < 200 nM |
| CCc1ccc2c(N)c(C(=O)NCCc3cc(F)c(N4CCNCC4)cc3F)sc2n1 [Compound I-48] | < 200 nM | < 200 nM |
| Cc1ccc2c(N)c(C(=O)NCCc3cc(F)c(N4C[C@@H]5C[C@H]4CN5)cc3F)sc2n1 [Compound I-52] | 200 to 2000 nM | < 200 nM |
| Cc1ccc2c(N)c(C(=O)NCCc3cc(F)c(N4C[C@H]5C[C@@H]4CN5)cc3F)sc2n1 [Compound I-53] | < 200 nM | < 200 nM |
| Cc1ccc2c(N)c(C(=O)NCCc3ccc(N4CC5CCC(C4)N5)c(C#N)c3)sc2n1 [Compound I-54] | 200 to 2000 nM | < 200 nM |
| Cc1cc(Cl)nc2sc(C(=O)NCCc3ccc(N4CCNCC4)cc3)c(N)c12 [Compound I-56] | 200 to 2000 nM | 200 to 2000 nM |
| CN1CCC(c2ccc(CCNC(=O)c3sc4nc(Cl)ccc4c3N)cc2)CC1 [Compound I-58] | 200 to 2000 nM | < 200 nM |
| CN1CCN(c2ccc(CCNC(=O)c3sc4nc(Cl)ccc4c3N)cc2)CC1 [Compound I-59] | 200 to 2000 nM | 200 to 2000 nM |
| Nc1c(C(=O)NCCc2ccc(C3CCNCC3)cc2)sc2nc(Cl)ccc12 [Compound I-60] | 200 to 2000 nM | 200 to 2000 nM |
| Cc1cc2c(N)c(C(=O)NCCc3ccc(N4CCNCC4)cc3)sc2nc1C [Compound I-61] | 2000 to 10000 nM | 200 to 2000 nM |
| Cc1cc(C(F)F)nc2sc(C(=O)NCCc3ccc(N4CCNCC4)cc3)c(N)c12 [Compound I-62] | < 200 nM | < 200 nM |

| Structure (SMILES) | IC50 (USP25) | IC50 (USP28) |
| --- | --- | --- |
| Cc1nc2sc(C(=O)NCCc3ccc(N4CCNCC4)cc3)c(N)c2cc1F [Compound I-63] | 200 to 2000 nM | < 200 nM |
| Cc1ccc2c(N)c(C(=O)NCCc3ccc(N4C5CNCC4C5)cc3)sc2n1 [Compound I-64] | < 200 nM | < 200 nM |
| Cc1ccc2c(N)c(C(=O)NCCc3ccc(N4CC5CC(C4)N5)cc3)sc2n1 [Compound I-65] | < 200 nM | < 200 nM |
| COc1nc2sc(C(=O)NCCc3cc(F)c(N4CCNCC4)cc3F)c(N)c2cc1F [Compound I-68] | 2000 to 10000 nM | 200 to 2000 nM |
| Nc1c(C(=O)NCCc2cc(F)c(N3CC4CCC(C3)N4)cc2F)sc2ncc(F)cc12 [Compound I-69] | 200 to 2000 nM | < 200 nM |
| Cc1ccc2c(N)c(C(=O)NCCc3cc(F)c(NC4CNC4)cc3F)sc2n1 [Compound I-70] | 200 to 2000 nM | < 200 nM |
| Cc1nc2sc(C(=O)NCCc3ccc(N4CC5CCC(C4)N5)c(C#N)c3)c(N)c2cc1F [Compound I-71] | 200 to 2000 nM | 200 to 2000 nM |
| Cc1nc2sc(C(=O)NCCc3cc(F)c(N4CC5CCC(C4)N5)cc3F)c(N)c2cc1F [Compound I-72] | 200 to 2000 nM | < 200 nM |
| Cc1ccc2c(N)c(C(=O)NCCc3ccc(C4CCNCC4)cc3F)sc2n1 [Compound I-170] | 200 to 2000 nM | < 200 nM |
| Cc1ccc2c(N)c(C(=O)NCCc3ccc(N4CC[C@@H](NC(C)C)C4)cc3)sc2n1 [Compound I-201] | 200 to 2000 nM | 200 to 2000 nM |
| Cc1cc(C(F)(F)F)c2c(N)c(C(=O)NCCc3ccc(N4CCNCC4)cc3)sc2n1 [Compound I-204] | < 200 nM | 200 to 2000 nM |
| Cc1ccc2c(N)c(C(=O)NCCc3ccc(C4CCNCC4)c(Cl)c3)sc2n1 [Compound I-205] | 200 to 2000 nM | < 200 nM |
| CCc1nc2sc(C(=O)NCCc3ccc(N4CCNCC4)cc3)c(N)c2cc1F [Compound I-206] | < 200 nM | < 200 nM |
| Cc1ccc2c(N)c(C(=O)NCCc3cc(F)c(N4CCN[C@@H](C)C4)cc3F)sc2n1 [Compound I-210] | 2000 to 10000 nM | 200 to 2000 nM |
| Cc1ccc2c(N)c(C(=O)NCCc3ccc(N4CCNCC4)cc3)sc2n1 [Example I-1, 3-Amino-6-methyl-N-(4-(piperazin-1-yl)phenethyl)thieno[2,3-b]pyridine-2-carboxamide] | 200 to 2000 nM | 200 to 2000 nM |
| Cc1ccc2c(N)c(C(=O)NCCc3ccc(N4CCNCC4)c(F)c3)sc2n1 [Example I-10, 3-Amino-N-(3-fluoro-4-(piperazin-1-yl)phenethyl)-6-methylthieno[2,3-b]pyridine-2-carboxamide] | 200 to 2000 nM | 2000 to 10000 nM |
| Cc1ccc2c(N)c(C(=O)NCCc3cc(F)c(N4CCNCC4)cc3F)sc2n1 [Example I-11, 3-Amino-N-(2,5-difluoro-4-(piperazin-1-yl)phenethyl)-6-methylthieno[2,3-b]pyridine-2-carboxamide] | 200 to 2000 nM | 200 to 2000 nM |
| Cc1ccc2c(N)c(C(=O)NCCc3ccc(N4CCNCC4)c(OC(F)F)c3)sc2n1 [Example I-73, 3-Amino-N-(3-(difluoromethoxy)-4-(piperazin-1-yl)phenethyl)-6-methylthieno[2,3-b]pyridine-2-carboxamide] | 200 to 2000 nM | 200 to 2000 nM |
| Cc1ccc2c(N)c(C(=O)NCCc3ccc(N4CCN(C5CCC5)CC4)cc3)sc2n1 [Example I-75] | 200 to 2000 nM | 200 to 2000 nM |
| Cc1ccc2c(N)c(C(=O)NCCc3ccc(N4CCNCC4)cc3Cl)sc2n1 [Example I-76] | 200 to 2000 nM | < 200 nM |
| Cc1ccc2c(N)c(C(=O)NCCc3ccc(N4CCNCC4)c(Cl)c3)sc2n1 [Example I-77] | 200 to 2000 nM | 200 to 2000 nM |
